PubChem BioAssay (NCI)
Several values for one entry are separate records, joined by “and”; a condition that tells them apart may be missing. Equal entries are not always repeated.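 The compound was tested at five concentrations on cells cultured in 96-well plates, with a 48-hour exposure period. Here, GI50 denotes the concentration required for 50% inhibition of growth. At the TGI there is no net growth.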

Legend:
Experiment in all cases: inhibition of tumour cell growth, NCI panel, 48 h
[1] = system: HT29 colon
[2] = system: COLO 205 colon
[3] = system: OVCAR-8 ovarian
[4] = system: SF-539 CNS
[5] = system: MCF7 breast
[6] = system: HCT-116 colon
[7] = system: U251 CNS
[8] = system: UACC-257 melanoma
[9] = system: NCI-H226 lung
[10] = system: HOP-62 NSCLC

| SMILES | GI50 [1] | TGI [1] [µM] | GI50 [2] | TGI [2] [µM] | GI50 [3] | TGI [3] | GI50 [4] | TGI [4] | GI50 [5] | TGI [5] [µM] | GI50 [6] | TGI [6] [µM] | GI50 [7] | TGI [7] | GI50 [8] [µM] | TGI [8] [µM] | GI50 [9] | TGI [9] [µM] | GI50 [10] | TGI [10] |
| --- | --- | --- | --- | --- | --- | --- | --- | --- | --- | --- | --- | --- | --- | --- | --- | --- | --- | --- | --- | --- |
| C[C@]12CC[C@@H]3c4cc(-c5ccc(F)cc5)c(O)cc4CC[C@H]3[C@@H]1CC[C@@H]2O | 6.54 µM | 20.2 | 4.83 µM | 23.9 | 8.02 µM | 37.3 µM | 9.42 µM | 22.9 µM | 5.21 µM | 18.6 | 5.65 µM | 22 | 5.54 µM | 17.9 µM | 15.3 | 29.6 | 10.3 µM | 30.4 | 11.2 µM | 28.3 µM |
| C[C@@H](O)[C@H](NC(=O)N[C@@H](CC(N)=O)c1nc([C@@H](N)CO)no1)C(=O)O | > 100 µM | > 100 | > 100 µM | > 100 | > 100 µM | > 100 µM | > 100 µM | > 100 µM | > 100 µM | > 100 | > 100 µM | > 100 | > 100 µM | > 100 µM | > 100 | > 100 | > 100 µM | > 100 | > 100 µM | > 100 µM |
| COc1ccc(/C(COc2ccc3c(=O)c(-c4ccccc4)coc3c2)=N\O)cc1 | 2.89 µM | > 44.5 | 9.66 µM | > 36.3 | 12.1 µM | 64.3 µM | 1.6 µM | 5.32 µM | 3.16 µM | > 50.9 | 18.3 µM | 44.6 | 1.1 µM | > 39.6 µM | 17.9 | > 60 | 15.2 µM | 89 | 8.52 µM | 33.7 µM |
| C#CC1(OC(C)=O)CCC2C3CC=C4C=C(OC(C)=O)CCC4(C)C3CCC21C (stereo unspecified) |  | 40 |  | 58.5 |  | 46.3 µM |  | 40.1 µM |  | 49.9 |  | 44.3 |  | 38.9 µM |  | 35.3 |  | 63 |  | > 100 µM |
| COc1cc(N2CCC(N3CCN(C)CC3)CC2)ccc1Nc1ncnc(Nc2ccccc2S(=O)(=O)C(C)C)n1 | 1.93 µM | 7.25 | 3.21 µM | 11.1 | 3.52 µM | 21.3 µM | 3.46 µM | 14.6 µM | 2.36 µM | 23.5 | 4.94 µM | 22.7 | 4.34 µM | 19.1 µM | 8.42 | 27.3 | 2.19 µM | 17.5 | 2.29 µM | 11.1 µM |
| CCCN(CCC)c1ccc(/C=C/c2ccc3cc(OCC)ccc3n2)cc1 | 15 µM | > 100 | > 100 µM | > 100 | 99.2 µM | > 100 µM | > 100 µM | > 100 µM | > 100 µM | > 100 | 31.6 µM | > 100 | 48.5 µM | > 100 µM | > 100 | > 100 | 58.6 µM | > 100 | > 100 µM | > 100 µM |
| CNC/C(Cl)=N/S(=O)(=O)c1ccc(C)cc1 |  | 60.4 |  | 38.2 |  | > 100 µM |  | 39.7 µM |  | 23.7 |  | 21.1 |  | 20.5 µM |  | 25.4 |  | 59.5 |  | 29.9 µM |
| C=C(CN1CCN(c2cccc(C(F)(F)F)n2)CC1)c1ccc(C(=O)Nc2ccccc2N)cc1 | 0.565 µM and 0.341 µM |  | 3.34 µM and 0.907 µM |  | 4.25 µM and 1.09 µM | 55.4 µM and > 79 µM | 0.978 µM and 0.331 µM | 16.8 µM and 2.05 µM | 0.349 µM and 0.293 µM | > 100 | 0.537 µM and 0.402 µM | > 100 | 1.16 µM and 0.429 µM | 34.4 µM and 12.8 µM |  | > 100 | 13.4 µM and 20.9 µM | > 100 | 2.21 µM and 0.877 µM | 21.4 µM and 7.51 µM |
| CC(=Nc1ccccc1)C1=C(O)C(Cc2ccc(O)cc2)NC1=O (stereo unspecified) | 0.0472 µM | 0.452 | 0.076 µM | 0.28 | 0.255 µM | > 100 µM | 0.129 µM | 0.703 µM | 0.0391 µM | > 100 | 0.0503 µM | 1.93 | 0.0609 µM |  | > 100 | > 100 | 0.968 µM | > 100 | 0.106 µM | 2.46 µM |
| C=C(NC(=O)C(=C)NC(=O)c1csc(C2=NC3c4csc(n4)C4NC(=O)c5csc(n5)C(C(C)(O)C(C)O)NC(=O)C5CSC(=N5)C(=CC)NC(=O)C(C(C)O)NC(=O)c5csc(n5)C3(CC2)NC(=O)C(C)NC(=O)C(=C)NC(=O)C(C)NC(=O)C(C(C)CC)NC2C=Cc3c(C(C)O)cc(nc3C2O)C(=O)OC4C)n1)C(N)=O (stereo unspecified) | 10.4 µM | > 100 | 2.72 µM | 13.7 | 7.02 µM | > 100 µM | 4.62 µM | 42.9 µM | 5.7 µM | > 100 | 1.74 µM | 4.09 | 9.37 µM | 31.8 µM | 29.4 | > 100 | 2.18 µM | 7.71 | 22.9 µM | > 100 µM |
| O=C1c2ccccc2-c2oc(=O)c3ccccc3c21 |  | > 100 |  | > 100 |  | > 100 µM |  | > 100 µM |  | > 100 |  | > 100 |  | > 100 µM |  | > 100 |  | > 100 |  | > 100 µM |
| CNC(=O)c1ccc(N2C(=S)N(c3ccc(C#N)c(C(F)(F)F)c3)C(=O)C2(C)C)cc1F | 43.3 µM | > 100 | 32 µM | > 57.7 | 50.2 µM | > 100 µM | > 48.6 µM | > 87.3 µM | 33.9 µM | > 82.3 | 23.9 µM | > 58.2 | 43 µM | > 79.7 µM | 35.1 | > 80.7 | 39.7 µM | > 71.9 | 25.1 µM | > 67.2 µM |
